From US20230374143A1, “A SORTILIN ANTAGONIST FOR USE IN THE PREVENTION OR TREATMENT OF HEARING LOSS” (Insusense ApS, priority 2020, published 2023)
Read-outs that look alike come from different tables or passages of the source.

Assays:
SORT = target: T1, SORT (Homo sapiens, UniProt Q99523); assay: progranulin (PGRN) peptide/SORT homogenous time-resolved fluorescence (HTRF) assay; format: binding; settings: SORT 1 nM, biotinylated 18-mer PGRN peptide 4 nM, TR-FRET
T1 sequence (Q99523 78-831): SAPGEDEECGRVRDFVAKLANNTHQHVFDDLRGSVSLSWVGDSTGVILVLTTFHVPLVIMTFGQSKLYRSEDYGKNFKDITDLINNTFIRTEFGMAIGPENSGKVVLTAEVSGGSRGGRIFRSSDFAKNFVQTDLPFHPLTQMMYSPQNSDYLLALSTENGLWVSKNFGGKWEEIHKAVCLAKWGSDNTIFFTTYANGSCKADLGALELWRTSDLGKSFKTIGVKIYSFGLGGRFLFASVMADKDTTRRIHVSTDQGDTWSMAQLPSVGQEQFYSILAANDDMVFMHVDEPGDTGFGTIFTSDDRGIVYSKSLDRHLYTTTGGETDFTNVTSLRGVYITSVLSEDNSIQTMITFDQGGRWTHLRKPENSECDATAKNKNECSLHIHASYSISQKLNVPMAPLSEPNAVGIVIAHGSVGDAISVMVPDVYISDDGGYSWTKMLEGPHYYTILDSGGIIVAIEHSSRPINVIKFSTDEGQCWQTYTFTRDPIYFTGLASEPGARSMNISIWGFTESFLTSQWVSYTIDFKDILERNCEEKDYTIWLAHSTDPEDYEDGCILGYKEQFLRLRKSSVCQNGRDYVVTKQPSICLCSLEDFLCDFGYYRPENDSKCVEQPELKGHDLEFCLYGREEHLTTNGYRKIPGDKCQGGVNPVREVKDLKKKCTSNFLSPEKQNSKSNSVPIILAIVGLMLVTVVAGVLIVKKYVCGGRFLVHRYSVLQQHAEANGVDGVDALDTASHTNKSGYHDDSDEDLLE
Procedure: To determine the IC50s of compounds bound to SORT and thus preventing its interaction with the biotinylated 18-mer PGRN peptide a time-resolved fluorescence resonance energy transfer (TR-FRET) format was used. All test compounds were dissolved in DMSO; the final concentration of DMSO in the reaction buffer was 1%. Compounds were prepared in a ten-point, three-fold serial dilution scheme using an acoustic dispenser. A solution of SORT protein in assay buffer (10 mM HEPES, pH 7.3, 150 mM NaCl, 0.005% Brij-35 and 0.01% BSA, final concentration of SORT 1 nM) was added to each well and pre-incubated with compounds or DMSO vehicle at ambient temperature for 10 min with gentle shaking. Next, biotinylated 18-mer PGRN peptide was added to each well (final concentration 4 nM) and the binding reactions were incubated at ambient temperature for 30 min with gentle shaking. Solutions of SA/Dylight in assay buffer were added to each well, immediately followed by addition of Eu/anti-His in assay buffer. […] Data were analyzed using ABase and a 4-parameter logistic fit based on the Levenberg-Marquardt algorithm.^9

[1] = Poloxamer gelling tests at 20° C. and 37° C.; format: physicochemical; settings: 14% poloxamer gel, compound at 1 mg/mL
Description: In a preferred embodiment, the sortilin antagonists herein described may be administered in a gel formulation, preferably a Poloxamer 407 gel formulation. Said formulation may comprise the following excipients, reactants and solvents; Poloxamer 407, 5% glucose, Sodium dihydrogenophosphate, Di-sodium hydrogenophosphate, acetonitrile, trifluoroacetic acid and de-ionized water. Preferably, the gel formulation is a 14% poloxamer solution in diluted pH 7.4 phosphate buffer (0.013M) in deionized water. […] (body temperature), see Table 1 below. […] Accordingly, the aforementioned gel formulation is an appropriate vehicle solution to administer said compounds.

hSortilin [2] = target: T2, hSortilin (Homo sapiens, UniProt Q99523); settings: expected value, compared with the [125I]-Neurotensin SPA result; cited from earlier work
T2 sequence (Q99523 78-831): T1 sequence (Q99523 78-831)

hSortilin [3] = target: T2, hSortilin; assay: Neurotensin SPA assay with [125I]-Neurotensin; format: binding
Description: All values reported are average of at least 4 determinations.^8

| SMILES | IC50 (SORT) [µM] | also measured |
| --- | --- | --- |
| CC(C)(C)c1cc(C(=O)O)n(CCc2ccccc2)n1 [Example 37, 3-tert-butyl-1-(2-phenylethyl)-1H-pyrazole-5-carboxylic acid] | 5.3 | – |
| CC(C)(C)c1cc(C(=O)O)n(Cc2ccc(Oc3ccccc3)nc2)n1 [Example 34, 3-tert-butyl-1-[(6-phenoxypyridin-3-yl)methyl]-1H-pyrazole-5-carboxylic acid] | 2.1 | – |
| CC(C)(C)CC[C@H](NC(=O)c1cc(Cl)cc(Cl)c1)C(=O)O (single isomer, unassigned) [Example 42] | 0.17 | – |
| CC(C)(C)CCc1cc(C(=O)O)n(Cc2ccccc2)n1 [Example 41, 1-benzyl-3-(3,3-dimethylbutyl)-1H-pyrazole-5-carboxylic acid] | > 67 | – |
| CC(C)(C)OC[C@H](NC(=O)c1cc(Cl)cc(Cl)c1)C(=O)O [Example 60, (2S)-3-(tert-butoxy)-2-[(3,5-dichlorophenyl)formamido]propanoic acid] | 1.5 | – |
| CC(C)(C)CC[C@H](NC(=O)c1cc(Cl)c[nH]1)C(=O)O (single isomer, unassigned) [Example 43] | 0.09 | – |
| Cn1nc(C(C)(C)C)cc1C(=O)O [Example 35, 3-tert-butyl-1-methyl-1H-pyrazole-5-carboxylic acid] | 8.3 | – |
| CC(OC(C)(C)C)[C@H](NC(=O)c1cc(Cl)cc(Cl)c1)C(=O)O (stereo partly drawn) [Example 61, (2S)-3-(tert-butoxy)-2-[(3,5-dichlorophenyl)formamido]butanoic acid] | > 67 | – |
| CC(C)(C)Cc1cc(C(=O)O)n(Cc2ccccc2)n1 [Example 39, 1-benzyl-3-(2,2-dimethylpropyl)-1H-pyrazole-5-carboxylic acid] | 6.6 | – |
| CC(C)c1cc(C(=O)O)n(CCc2ccccc2)n1 [Example 40, 1-(2-phenylethyl)-3-(propan-2-yl)-1H-pyrazole-5-carboxylic acid] | > 67 | – |
| Cc1cccc(NC(=O)c2ccc(C(F)(F)F)cc2C(=O)O)n1 [Example 8, 2-[(6-methylpyridin-2-yl)carbamoyl]-5-(trifluoromethyl)benzoic acid] | – | properties of the poloxamer gel formulation after addition of compound [1]: unaltered |
| CC(C)(C)c1cc(C(=O)O)n(Cc2cc(Cl)cc(Cl)c2)n1 [Example 32, 3-tert-butyl-1-[(3,5-dichlorophenyl)methyl]-1H-pyrazole-5-carboxylic acid] | 2.1 | – |
| CC(C)(C)c1cc(C(=O)O)n(Cc2ccc(-n3cccn3)nc2)n1 [Example 33, 3-tert-butyl-1-{[6-(1H-pyrazol-1-yl)pyridin-3-yl]methyl}-1H-pyrazole-5-carboxylic acid] | 3 | – |
| CC(C)(C)c1cc(C(=O)O)n(Cc2nnc(-c3ccccc3)o2)n1 [Example 38, 3-tert-butyl-1-[(5-phenyl-1,3,4-oxadiazol-2-yl)methyl]-1H-pyrazole-5-carboxylic acid] | 0.49 | – |
| CC(C)(C)c1cc(C(=O)O)n(Cc2ccccc2)n1 [Example 31, 1-benzyl-3-tert-butyl-1H-pyrazole-5-carboxylic acid] | 2 | – |
| CC(C)(C)CC[C@H](NC(=O)c1ccc(Oc2ccccc2)nc1)C(=O)O (racemic) [*Example 44] | – | IC50 (hSortilin [2]): 0.02 µM; IC50 (hSortilin [3]; [125I]-Neurotensin, read-out: Observed IC50): 0.12 µM; Fold difference between calculated and expected (hSortilin [3]; observed versus expected IC50): 6 |
| CC(C)(C)c1cc(C(=O)O)n(-c2ccccc2)n1 [Example 36, 3-tert-butyl-1-phenyl-1H-pyrazole-5-carboxylic acid] | 7.6 | – |

Second part, led by results:

| IC50 (SORT) [µM] | SMILES | also measured |
| --- | --- | --- |
| 6.9 | CC(C)(C)CC(NC(=O)c1cc(Cl)cc(Cl)c1)c1nn[nH]n1 (centres unmarked) [Example 62, 3,5-dichloro-N-[3,3-dimethyl-1-(2H-1,2,3,4-tetrazol-5-yl)butyl]benzamide] | – |
| 0.35 | CC(C)(C)C[C@H](NC(=O)c1cc(Cl)cc(Cl)c1)C(=O)O [Example 57, (2S)-2-[(3,5-dichlorophenyl)formamido]-4,4-dimethylpentanoic acid] | – |
| 5.3 | CC(C)C[C@H](NC(=O)c1cnn(C)c1)C(=O)O [Example 50, (2S)-4-methyl-2-[(1-methyl-1H-pyrazol-4-yl)formamido]pentanoic acid] | – |
| 14.4 | CC(C)C[C@H](NC(=O)C1CN(Cc2cc(Cl)cc(Cl)c2)CCO1)C(=O)O (stereo partly drawn) [Example 53, (2S)-2-({4-[(3,5-dichlorophenyl)methyl]morpholin-2-yl}formamido)-4-methylpentanoic acid] | – |
| 10.7 | O=C(N[C@@H](CC1CC1)C(=O)O)c1cc(Cl)cc(Cl)c1 [Example 55, (2S)-3-cyclopropyl-2-[(3,5-dichlorophenyl)formamido]propanoic acid] | – |
| 2.7 | CC(C)C[C@H](NC(=O)c1cc(Cl)cc(Cl)c1)C(=O)O [Example 46, (2S)-2-[(3,5-dichlorophenyl)formamido]-4-methylpentanoic acid] | – |
| 25.3 | CC(C)C[C@H](NC(=O)C1CCCC1)C(=O)O [Example 52, (2S)-2-(cyclopentylformamido)-4-methylpentanoic acid] | – |
| 4.3 | CC(C)C[C@H](NC(=O)c1ccc(Cl)c(Cl)c1)C(=O)O [Example 45, (2S)-2-[(3,4-dichlorophenyl)formamido]-4-methylpentanoic acid] | – |
| 0.02 | CC(C)(C)CC[C@H](NC(=O)c1ccc(Oc2ccccc2)nc1)C(=O)O (single isomer, unassigned) [Example 44] | – |
| 17.1 | C=C(C)C[C@H](NC(=O)c1cc(Cl)cc(Cl)c1)C(=O)O [Example 54, (2S)-2-[(3,5-dichlorophenyl)formamido]-4-methylpent-4-enoic acid] | – |
| 6.8 | COc1cccc(C(=O)N[C@@H](CC(C)C)C(=O)O)c1 [Example 48, (2S)-2-[(3-methoxyphenyl)formamido]-4-methylpentanoic acid] | – |
| 18 | O=C(N[C@@H](CC12CC(C1)C2)C(=O)O)c1cc(Cl)cc(Cl)c1 [Example 58, (2S)-3-{bicyclo[1.1.1]pentan-1-yl}-2-[(3,5-dichlorophenyl)formamido]propanoic acid] | – |
| > 67 | O=C(N[C@@H](Cc1ccccc1)C(=O)O)c1cc(Cl)cc(Cl)c1 [Example 59, (2S)-2-[(3,5-dichlorophenyl)formamido]-3-phenylpropanoic acid] | – |
| 6.8 | CC(C)C[C@H](NC(=O)C(C)(C)Cc1ccc(Cl)cc1)C(=O)O [Example 49, (2S)-2-{2-[(4-chlorophenyl)methyl]-2-methylpropanamido}-4-methylpentanoic acid] | – |
| 6.3 | CC(C)C[C@H](NC(=O)c1cnc2ccccc2n1)C(=O)O [Example 51, (2S)-4-methyl-2-[(quinoxalin-2-yl)formamido]pentanoic acid] | – |
| 0.065 | CC(C)(C)C[C@H](NC(=O)c1ccc(Oc2ccccc2)nc1)C(=O)O [Example 64, (2S)-4,4-dimethyl-2-[(6-phenoxypyridin-3-yl)formamido]pentanoic acid] | – |
| 10.8 | CC(C)C[C@H](NC(c1cc(Cl)cc(Cl)c1)C(F)(F)F)C(=O)O (stereo partly drawn) [Example 63, (2S)-2-{[1-(3,5-dichlorophenyl)-2,2,2-trifluoroethyl]amino}-4-methylpentanoic acid] | – |
| 2.3 | O=C(N[C@@H](CC1CCCCC1)C(=O)O)c1cc(Cl)cc(Cl)c1 [Example 56, (2S)-3-cyclohexyl-2-[(3,5-dichlorophenyl)formamido]propanoic acid] | – |
| 4.5 | CC(C)C[C@H](NC(=O)c1cccc(Cl)c1)C(=O)O [Example 47, (2S)-2-[(3-chlorophenyl)formamido]-4-methylpentanoic acid] | – |
